Among the test systems are Escherichia coli; Staphylococcus aureus; Pseudomonas aeruginosa; Proteus mirabilis; Streptococcus pyogenes; Escherichia coli UB1005; Candida albicans.
Test in all cases: ≥ marks a high value that may be exact or a test limit, other limits are often not marked, values filed in µg/mL are converted to µM
The subject of experiment [1] is Escherichia coli DH5alpha.
For experiment [2], the system named is Escherichia coli ATCC 25922.
The test system of experiment [3] is Pseudomonas aeruginosa ATCC 27853.
The test system of experiment [4] is Pseudomonas aeruginosa H188.
In experiment [5] the test system is Staphylococcus epidermidis.
In experiment [6] the test system is Salmonella enterica serovar Typhimurium.
The subject of experiment [7] is Pseudomonas aeruginosa H103.
The subject of experiment [8] is Staphylococcus aureus ATCC 25923.

≈ marks a conversion by molar mass, not a printed value.

This note sets out measurements from DBAASP.

For `CC[C@H](C)[C@H](NC(=O)[C@H](C)NC(=O)[C@H](CCCCN)NC(=O)[C@H](CC(C)C)NC(=O)[C@H](C)NC(=O)[C@@H](NC(=O)[C@H](Cc1cnc[nH]1)NC(=O)[C@H](CC(C)C)NC(=O)[C@H](CCCCN)NC(=O)[C@@H](NC(=O)[C@H](CCCCN)NC(=O)[C@H](CCCCN)NC(=O)[C@H](C)NC(=O)[C@H](CO)NC(=O)[C@H](CCCCN)NC(=O)[C@H](Cc1ccccc1)NC(=O)[C@@H](NC(=O)[C@H](CCCCN)NC(=O)[C@H](CC(C)C)NC(=O)[C@H](Cc1ccccc1)NC(=O)[C@H](CO)NC(=O)[C@H](CCCCN)NC(=O)[C@H](Cc1c[nH]c2ccccc12)NC(=O)[C@H](CCCCN)NC(C)=O)[C@@H](C)O)[C@@H](C)O)[C@@H](C)O)C(=O)N[C@@H](CO)C(=O)N[C@@H](CO)C(N)=O` [KWKSFLKTFKSAKKTKLHTALKAISS], the MIC in experiment [1] was 5.37 µM (≈ 16.2 µg/mL); in [2], 10.7 µM (≈ 32.4 µg/mL); in [3] it was 10.7 µM (≈ 32.4 µg/mL); with Escherichia coli, 2.69 µM (≈ 8.11 µg/mL); in experiment [4], 5.37 µM (≈ 16.2 µg/mL).
For the compound `CC[C@H](C)[C@H](NC(=O)[C@H](C)NC(=O)[C@H](CCCCN)NC(=O)[C@H](CC(C)C)NC(=O)[C@H](C)NC(=O)[C@@H](NC(=O)[C@H](Cc1cnc[nH]1)NC(=O)[C@H](CC(C)C)NC(=O)[C@H](CO)NC(=O)[C@@H](NC(=O)[C@H](CCCCN)NC(=O)[C@H](CCCCN)NC(=O)[C@H](C)NC(=O)[C@H](CO)NC(=O)[C@H](CCCCN)NC(=O)[C@H](Cc1ccccc1)NC(=O)[C@@H](NC(=O)[C@H](CCCCN)NC(=O)[C@H](CC(C)C)NC(=O)[C@H](Cc1ccccc1)NC(=O)[C@H](CO)NC(=O)[C@H](CCCCN)NC(=O)[C@H](Cc1c[nH]c2ccccc12)NC(=O)[C@H](CCCCN)NC(C)=O)[C@@H](C)O)[C@@H](C)O)[C@@H](C)O)C(=O)N[C@@H](CO)C(=O)N[C@@H](CO)C(N)=O` [KWKSFLKTFKSAKKTSLHTALKAISS], the MIC was found to be 2.72 µM (≈ 8.11 µg/mL) in experiment [1]; 2.72 µM (≈ 8.11 µg/mL) in [2]; 10.9 µM (≈ 32.4 µg/mL) in experiment [3]; 5.45 µM (≈ 16.2 µg/mL) with Escherichia coli; 1.36 µM (≈ 4.06 µg/mL) in experiment [4].
As to `NC(N)=NCCC[C@H](NC(=O)[C@H](Cc1c[nH]c2ccccc12)NC(=O)[C@H](CCCN=C(N)N)NC(=O)[C@H](CCCN=C(N)N)NC(=O)[C@H](Cc1c[nH]c2ccccc12)NC(=O)[C@H](CCCN=C(N)N)NC(=O)[C@H](CCCN=C(N)N)NC(=O)[C@H](Cc1c[nH]c2ccccc12)NC(=O)[C@H](CCCN=C(N)N)NC(=O)[C@H](CCCN=C(N)N)NC(=O)[C@H](Cc1c[nH]c2ccccc12)NC(=O)[C@@H](N)CCCN=C(N)N)C(=O)O` [RWRRWRRWRRWR], the MIC against Staphylococcus aureus was 5.96 µM (≈ 12 µg/mL); against Pseudomonas aeruginosa, greater than 31.8 µM; against Proteus mirabilis it was 31.8 µM (≈ 64 µg/mL); in the experiment with Streptococcus pyogenes, 0.497 µM (≈ 1 µg/mL).
Consider `CC[C@H](C)[C@H](NC(=O)[C@H](Cc1c[nH]c2ccccc12)NC(=O)[C@H](CC(C)C)NC(=O)[C@H](CCCN=C(N)N)NC(=O)[C@@H](N)C(C)C)C(=O)N[C@@H](CCCN=C(N)N)C(=O)N[C@H](C(=O)N[C@@H](C)C(=O)N[C@H](C(=O)N[C@H](C(=O)N[C@@H](CCCN=C(N)N)C(=O)N[C@@H](C)C(N)=O)[C@@H](C)CC)C(C)C)C(C)C` [VRLWIRVAVIRA], for which the MIC in the experiment with Escherichia coli UB1005 was 4.13 µM (≈ 6 µg/mL); in the experiment with Candida albicans it was 34.4 µM (≈ 50 µg/mL); in experiment [5] it was 2.07 µM (≈ 3 µg/mL); in experiment [6], no less than 34.4 µM; in [7], no less than 34.4 µM; in [8] it was 34.4 µM (≈ 50 µg/mL).
Turning to `NC(N)=NCCC[C@H](NC(=O)[C@H](CCCN=C(N)N)NC(=O)[C@H](CCCN=C(N)N)NC(=O)[C@H](CCCN=C(N)N)NC(=O)[C@H](CCCN=C(N)N)NC(=O)[C@H](CCCN=C(N)N)NC(=O)[C@H](CCCN=C(N)N)NC(=O)[C@H](CCCN=C(N)N)NC(=O)[C@H](Cc1c[nH]c2ccccc12)NC(=O)[C@H](Cc1c[nH]c2ccccc12)NC(=O)[C@@H](N)Cc1c[nH]c2ccccc12)C(=O)O` [WWWRRRRRRRR], the MIC against Staphylococcus aureus is 5.48 µM (≈ 10 µg/mL); against Pseudomonas aeruginosa it was greater than 35 µM; in the experiment with Proteus mirabilis, no less than 35 µM; against Streptococcus pyogenes it was 0.479 µM (≈ 0.875 µg/mL).

As a reminder, the MIC is the smallest concentration in the dilution series that meets the test's criterion for growth inhibition. Low values mean a more susceptible organism, high ones a less susceptible organism.
